Measurements from patent publication US5434295A (priority 1994, dated 1995).
Entries after “also recorded” stand apart in the source; their conditions may differ.

Assays:
Rat brain NMDA receptors = experiment: Blockade of NMDA response in Xenopus oocytes injected with rat brain RNA; assay type: biochemical
From the text: Blockade of NMDA-induced voltage changes in Xenopus oocytes: Frog oocytes can be injected with genetic material from various species and organs, resulting in the expression of the various molecules encoded by this material in the oocyte. Injection of rat brain RNA provides active NMDA receptors on the ooctye surface. Application of NMDA results in changes in the electrical activity recorded from the oocytes. Various NMDA antagonists block the NMDA-induced changes in electrical activity and their potency and dose dependence in this system indicate their potency and mode of action as NMDA antagonists.
The oocyte is the most widely used system for studying the molecular, biophysical and pharmacological properties of expressed voltage- or transmitter-operated ion channels. This giant cell offers several advantages for this type of studies. It can be readily used for two-electrode voltage clamp studies, translates injected mRNA from different sources and functionally expresses the translated proteins, and it is also readily amenable for intracellular micron injections. Importantly, the recordings of neurotransmitter- or voltage-induced currents in a single oocyte are extremely stable and can performed repeatedly for 2-3 hours; this allows the performance of a full dose-response relation in single oocytes.
Rat brain NMDA receptors were expressed in Xenopus oocytes injected with total rat brain RNA. Dascal and Lotan. The conditions for injection culture and electrical recording from oocytes were as described by Dascal and Lotan (in: Methods in Molecular Biology, Longstaff and Revest, eds. Vol. 13, Chapter 13, Humana Press, N.J., 1992).
Briefly, female Xenopus were anesthetized by immersion in water containing 0.15% tricaine methanesulfonate and a small incision was made in the lower abdomen. Ovary fragments were removed into ND-96.
The oocytes were defolliculated by the collagenase treatment in order to remove the follicle cell layer. Defolliculated oocytes were injected with total rat brain RNA and incubated for 2-4 days at 22° C. in sterile NDE-96 solution. ND-96 solution contains (in mM): NaCl - 96, KCl - 2, CaCl2 - 1.8, Hepes - 5 (pH=7.4-7.6). NDE-96 contains in addition, 2.5 mM sodium pyruvate, 100 unit/ml penicillin, 100 μg/ml streptomycin. A single oocyte was placed in a 1 ml bath constantly superfused with ND-96 solution at room temperature. The cell was impaled with two microelectrodes and held at membrane potential of -60 mV using voltage clamp circuit.
RNA was extracted from the brain of 14-day old rat brain. Each oocyte was injected with 50 nl total RNA (4-8 mg/ml in water, stored at -80° C. in […] aliquots).
NMDA receptors were activated by application of NMDA with glycine in Mg-free ND-96 solution. It was shown previously and also observed in this study that the entry of calcium ions through the NMDA receptor-channel evokes a Ca-dependent Cl^- current which appeared as an early inward current peak preceding and overlapping the actual NMDA response and hindering a quantitative pharmacological study of NMDA antagonists. Experimental conditions were therefore worked out aimed at eliminating the Cl^- current. The best protocol employed the use of Ca-free, Ba-containing solution, avoiding repetitive application of antagonists, as well as other conditions including optimal perfusion rate and optimal intervals between repetitive NMDA applications.
Several NMDA receptor blockers were tested. These compounds have […] and have to be dissolved in 100% dimethyl sulfoxide (DMSO) and diluted for use in ND-96 that contained 1% DMSO. Therefore, the effect of 1% DMSO on the response to 10^-4 M NMDA and 5×10^-6 M glycine was examined. DMSO had no effect on NMDA response in three different cells.
Eight putative NMDA antagonists of the HU group, including 270, 271 and 259 were tested for anti-NMDA activity at a glutamate receptor. […]

[1] = test system: acetylcholine-muscarinic receptor; assay type: binding, rat; settings: 100 μM analogue
[2] = test system: MK-801 sites located at the NMDA receptor ion channel; experiment: Inhibition of [3H]MK-801 binding to rat forebrain membranes; settings: for % inhibition of tritiated ligand binding to membranes, 3[H]-MK-801: 100 μM analogue
From the text: Binding to the NMDA receptor linked channel: Non competitive antagonists of NMDA, the primary example of which is the compound MK-801, bind to a site within the NMDA receptor channel thus preventing the activation of the receptor-channel complex and the consequent neurotoxicity. The ability of various compounds to compete with the binding of tritium labeled MK-801 to brain membranes is considered a measure of their potency as NMDA non-competitive antagonists.
The association of pinene derivatives with acetylcholine-muscarinic receptor and with MK-801 sites located at the NMDA receptor ion channel.
Inhibition of ^3 [H]MK-801 binding to rat forebrain membranes by the test HU-211 compounds was carried out as described for HU-211 in Eshhar et al., NeuroReport 5, No. 3, 1993) (Methods section). The test compounds were solubilized in a mixture of ethanol:Emulfor:water (20:3:57).

hypobaric anoxia in mice = experiment: Survival of mice exposed to hypobaric anoxia; assay type: in vivo; settings: 200 mmHg, 5 mg/kg i.p. in MCT oil, 45 min before
Procedure: Protection against hypobaric anoxia in mice: Exposure of mice to a hypobaric (200 mmHg) atmosphere reduces the amount of oxygen available to the animals and results in death within 1-2 minutes in untreated mice. Pretreatment with compounds that can counteract the effects of oxygen deprivation prolong (double or more) the survival time of mice subjected to this treatment. The increase in survival time is a measure of the potency of the compounds in counteracting anoxic damage in vivo.
Hypobaric Anoxia was used as a system for testing the neuroprotective effects of test compounds, HU-270 and HU-271. The experimental paradigm was derived from that described by Gotti and Depoortere, Congres de Circ. Cerebrale, Toulouse, 105-107 (1979). Briefly, mice in groups of 5 were placed in a chamber which was equilibrated at an atmospheric pressure of 200 mmHg (by evacuation via a vacuum pump). The mice were observed until they stopped breathing and the time was recorded for each mouse. The test compounds were administered 45 min before introducing the animals into the chamber. In all cases the experiment was performed in a masked vehicle controlled study to avoid bias on the part of the observer. Each mouse received the drug dissolved in MCT oil intraperitoneally at a dose of 5 mg/kg, or the vehicle alone (MCT oil, 5 ml/kg).

SMILES | selectivity NMDA over AMPA/kainate receptors (Rat brain NMDA receptors) | % inhibition of NMDA (Rat brain NMDA receptors; 1 μM) [%] | % inhibition of NMDA (Rat brain NMDA receptors; 10 μM) [%] | mode of NMDA antagonism (Rat brain NMDA receptors; Lineweaver-Burke analysis) | concentration at which inhibitory activity was first apparent (Rat brain NMDA receptors; NMDA response) [nM] | % inhibition of tritiated ligand binding to membranes, 3[H]QNB [1] [%] | % inhibition of tritiated ligand binding to membranes, 3[H]-MK-801 [2] [%] | Ki ([2]; [3H]MK801 binding, rat forebrain membranes, representative experiment in triplicate (HU259), read-out: inhibition constant (K1)) [µM] | survival of mice exposed to hypobaric anoxia (hypobaric anoxia in mice)
CCCCCCC(C)(C)c1cc(OC(C)=O)c([C@H]2C=C(C(=O)O)[C@H]3C[C@@H]2C3(C)C)c(OC(C)=O)c1 [(+)-4-[4-DMH-2,6 diacetoxyphenyl]-2-carboxy-6,6-dimethylbicyclo[3.1.1]hept-2-en] | selective for the NMDA over AMPA/kainate receptors | 35 | 41 | non-competitive NMDA antagonists | 10 | 98.0 | 90.0 | 7.6 | –
CCCCCCC(C)(C)c1cc(OC(C)=O)c([C@H]2C=C(C(=O)N(CC)CC)[C@H]3C[C@@H]2C3(C)C)c(OC(C)=O)c1 [HU-270] | – | 20 | – | – | – | – | – | – | increased survival; also recorded: statistically significant increase of survival time
CCCCCCC(C)(C)c1cc(OC(C)=O)c([C@H]2C=C(C(=O)NCCO)[C@H]3C[C@@H]2C3(C)C)c(OC(C)=O)c1 [HU-271] | – | 16 | 20 | – | – | 98.3 | 46.3 | – | increased survival; also recorded: statistically significant increase of survival time
